Results as given in patent US20090186865A1, “Lyophilization Process” (SANDOZ AG, priority 2005, published 2009).

Test: Stability studies of dissolved products versus temperature
Type: physicochemical
Conditions: in aqueous solution

SMILES | Inflexion point of degradation of dissolved product with temperature
CCN1CCN(C(=O)N[C@@H](C(=O)N[C@@H]2C(=O)N3[C@@H]2SC(C)(C)[C@@H]3C(=O)O)c2ccccc2)C(=O)C1=O [Piperacillin] | around 15 °C
C[C@]1(Cn2ccnn2)[C@H](C(=O)O)N2C(=O)C[C@H]2S1(=O)=O [Tazobactam] | around 15 °C
